From patent US11965039B2, “Compstatin analogues and their medical uses” (priority 2018, dated 2024)
Positions of bridges follow the written chain, without caps; N, C: chain ends. Non-standard residues stand in square brackets, D forms with d. Residues, ends and D or L forms follow the SMILES beside them. Trp(1-Me) = Cn1cc(C[C@H](N)C(=O)O)c2ccccc21; 2Nal = N[C@@H](Cc1ccc2ccccc2c1)C(=O)O

Key:
[1] = Solubility test at 10 mg/mL (visual inspection and light scattering); format: physicochemical; details: for Solubility, Condition 1: Acetate pH 4; for Solubility, Condition 2: Acetate pH 5; for Solubility, Condition 3: Phosphate pH 6; for Solubility, Condition 4: Phosphate pH 7; for Solubility, Condition 5: Phosphate pH 7.5
[2] = tested on: classical complement pathway; experiment: In vitro haemolysis assay (inhibition of classical complement pathway); format: cell-based, human; details: human serum, sensitized sheep red blood cells; Table 3, given as upper bounds; read-out: IC50, inhibition of hemolysis
Procedure, shortened: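 Compound dilutions preincubated 15 min at room temperature with diluted human serum (titrated per batch for 70-90% maximal haemolysis), then antibody-sensitized sheep RBC (10^7/well) added for 30 min at 37 °C in Tris/casein buffer, pH 7.4. Stopped with EDTA; haemolysis read at 405 nm; IC50 by 4PL fit.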

| SMILES | Solubility, Condition 1 [1] | Solubility, Condition 2 [1] | Solubility, Condition 3 [1] | Solubility, Condition 4 [1] | Solubility, Condition 5 [1] | IC50 [2] [nM] |
| --- | --- | --- | --- | --- | --- | --- |
| CC[C@H](C)[C@@H]1NC(=O)[C@@H](NC(=O)[C@H](Cc2ccccc2)NC(=O)[C@H](CCC(=O)O)NC(=O)[C@H](CO)NC(C)=O)CSSC[C@@H](C(=O)N[C@H](C(=O)NCC(=O)N[C@@H](C)C(=O)N[C@@H](CCC(=O)O)C(=O)N[C@@H](CO)C(N)=O)[C@@H](C)O)NC(=O)[C@H](CCCNC(=N)N)NC(=O)[C@H](Cc2c[nH]cn2)NC(=O)[C@H](CCC(=O)O)NC(=O)CNC(=O)[C@H](Cc2c[nH]c3ccccc23)NC(=O)[C@H](CC(=O)O)NC(=O)[C@H](CCC(N)=O)NC(=O)[C@H](Cc2cn(C)c3ccccc23)NC1=O [Compound 67] (Ac-SEFCI[Trp(1-Me)]QDWGEHRCTGAES-NH2; disulfide 4-14) | − (“−” denotes lack of solubility at the given condition, as UV absorbance at 340 nm exceeds 0.1 AU and/or it is visibly turbid or contains particles) | − (“−” denotes lack of solubility at the given condition, as UV absorbance at 340 nm exceeds 0.1 AU and/or it is visibly turbid or contains particles) | + (“+” denotes solubility at the given condition, as determined by UV absorbance being less than 0.1 AU at 340 nm and the sample being clear when manually inspected) | + (“+” denotes solubility at the given condition, as determined by UV absorbance being less than 0.1 AU at 340 nm and the sample being clear when manually inspected) | + (“+” denotes solubility at the given condition, as determined by UV absorbance being less than 0.1 AU at 340 nm and the sample being clear when manually inspected) | < 100 |
| CC[C@H](C)[C@H](NC(=O)[C@H](C)NC(=O)[C@H](CO)NC(=O)CNC(=O)[C@H](CCC(=O)O)NC(C)=O)C(=O)N[C@H]1CSSC[C@@H](C(=O)N[C@H](C(=O)N[C@@H](CCC(=O)O)C(N)=O)[C@@H](C)O)NC(=O)[C@H](CCCNC(=N)N)NC(=O)[C@H](Cc2c[nH]cn2)NC(=O)[C@H](CCC(=O)O)NC(=O)CNC(=O)[C@H](Cc2c[nH]c3ccccc23)NC(=O)[C@H](CC(=O)O)NC(=O)[C@H](CCC(N)=O)NC(=O)[C@H](Cc2c[nH]c3ccccc23)NC(=O)[C@H]([C@@H](C)CC)NC1=O [Compound 55] (Ac-EGSAICIWQDWGEHRCTE-NH2; disulfide 6-16) | − (“−” denotes lack of solubility at the given condition, as UV absorbance at 340 nm exceeds 0.1 AU and/or it is visibly turbid or contains particles) | − (“−” denotes lack of solubility at the given condition, as UV absorbance at 340 nm exceeds 0.1 AU and/or it is visibly turbid or contains particles) | + (“+” denotes solubility at the given condition, as determined by UV absorbance being less than 0.1 AU at 340 nm and the sample being clear when manually inspected) | + (“+” denotes solubility at the given condition, as determined by UV absorbance being less than 0.1 AU at 340 nm and the sample being clear when manually inspected) | + (“+” denotes solubility at the given condition, as determined by UV absorbance being less than 0.1 AU at 340 nm and the sample being clear when manually inspected) | < 250 |
| CC[C@H](C)[C@H](NC(=O)[C@H](C)NC(=O)[C@H](CO)NC(=O)[C@H](CO)NC(=O)[C@H](CCC(=O)O)NC(C)=O)C(=O)N[C@H]1CSSC[C@@H](C(=O)N[C@H](C(=O)NCC(=O)N[C@@H](C)C(=O)N[C@@H](CCC(=O)O)C(=O)N[C@@H](CO)C(N)=O)[C@@H](C)O)NC(=O)[C@H](CCCNC(=N)N)NC(=O)[C@H](Cc2c[nH]cn2)NC(=O)[C@H](CCC(=O)O)NC(=O)CNC(=O)[C@H](Cc2c[nH]c3ccccc23)NC(=O)[C@H](CC(=O)O)NC(=O)[C@H](CCC(N)=O)NC(=O)[C@H](Cc2c[nH]c3ccccc23)NC(=O)[C@H]([C@@H](C)CC)NC1=O [Compound 14] (Ac-ESSAICIWQDWGEHRCTGAES-NH2; disulfide 6-16) | + (“+” denotes solubility at the given condition, as determined by UV absorbance being less than 0.1 AU at 340 nm and the sample being clear when manually inspected) | − (“−” denotes lack of solubility at the given condition, as UV absorbance at 340 nm exceeds 0.1 AU and/or it is visibly turbid or contains particles) | − (“−” denotes lack of solubility at the given condition, as UV absorbance at 340 nm exceeds 0.1 AU and/or it is visibly turbid or contains particles) | + (“+” denotes solubility at the given condition, as determined by UV absorbance being less than 0.1 AU at 340 nm and the sample being clear when manually inspected) | + (“+” denotes solubility at the given condition, as determined by UV absorbance being less than 0.1 AU at 340 nm and the sample being clear when manually inspected) | < 100 |
| CC[C@H](C)[C@H](NC(C)=O)C(=O)N[C@H]1CSSC[C@@H](C(=O)N[C@H](C(=O)NCC(=O)N[C@@H](C)C(=O)N[C@@H](CCC(=O)O)C(=O)N[C@@H](CO)C(N)=O)[C@@H](C)O)NC(=O)[C@H](CCCNC(=N)N)NC(=O)[C@H](Cc2c[nH]cn2)NC(=O)[C@H](CCC(=O)O)NC(=O)CNC(=O)[C@H](Cc2c[nH]c3ccccc23)NC(=O)[C@H](CC(=O)O)NC(=O)[C@H](CCC(N)=O)NC(=O)[C@H](Cc2ccc3ccccc3c2)NC(=O)[C@H]([C@@H](C)CC)NC1=O [Compound 52] (Ac-ICI[2Nal]QDWGEHRCTGAES-NH2; disulfide 2-12) | − (“−” denotes lack of solubility at the given condition, as UV absorbance at 340 nm exceeds 0.1 AU and/or it is visibly turbid or contains particles) | − (“−” denotes lack of solubility at the given condition, as UV absorbance at 340 nm exceeds 0.1 AU and/or it is visibly turbid or contains particles) | + (“+” denotes solubility at the given condition, as determined by UV absorbance being less than 0.1 AU at 340 nm and the sample being clear when manually inspected) | + (“+” denotes solubility at the given condition, as determined by UV absorbance being less than 0.1 AU at 340 nm and the sample being clear when manually inspected) | + (“+” denotes solubility at the given condition, as determined by UV absorbance being less than 0.1 AU at 340 nm and the sample being clear when manually inspected) | < 100 |
| CC[C@H](C)[C@@H]1NC(=O)[C@@H](NC(=O)[C@H](Cc2ccc(O)cc2)NC(C)=O)CSSC[C@@H](C(=O)N[C@H](C(=O)N[C@@H](CCC(=O)O)C(=O)N[C@@H](C)C(=O)NCC(=O)N[C@@H](CO)C(N)=O)[C@@H](C)O)NC(=O)[C@H](CCCNC(=N)N)NC(=O)[C@H](Cc2c[nH]cn2)NC(=O)[C@H](CCC(=O)O)NC(=O)CNC(=O)[C@H](Cc2c[nH]c3ccccc23)NC(=O)[C@H](CC(=O)O)NC(=O)[C@H](CCC(N)=O)NC(=O)[C@H](Cc2cn(C)c3ccccc23)NC1=O [Compound 68] (Ac-YCI[Trp(1-Me)]QDWGEHRCTEAGS-NH2; disulfide 2-12) | − (“−” denotes lack of solubility at the given condition, as UV absorbance at 340 nm exceeds 0.1 AU and/or it is visibly turbid or contains particles) | − (“−” denotes lack of solubility at the given condition, as UV absorbance at 340 nm exceeds 0.1 AU and/or it is visibly turbid or contains particles) | + (“+” denotes solubility at the given condition, as determined by UV absorbance being less than 0.1 AU at 340 nm and the sample being clear when manually inspected) | + (“+” denotes solubility at the given condition, as determined by UV absorbance being less than 0.1 AU at 340 nm and the sample being clear when manually inspected) | + (“+” denotes solubility at the given condition, as determined by UV absorbance being less than 0.1 AU at 340 nm and the sample being clear when manually inspected) | < 100 |
| CC[C@H](C)[C@@H]1NC(=O)[C@@H](NC(=O)[C@H](Cc2ccccc2)NC(=O)[C@H](C)NC(=O)[C@H](CO)NC(=O)CNC(=O)[C@H](CCC(=O)O)NC(C)=O)CSSC[C@@H](C(=O)N[C@H](C(=O)N[C@@H](CCC(=O)O)C(N)=O)[C@@H](C)O)NC(=O)[C@H](CCCNC(=N)N)NC(=O)[C@H](Cc2c[nH]cn2)NC(=O)[C@H](CCC(=O)O)NC(=O)CNC(=O)[C@H](Cc2c[nH]c3ccccc23)NC(=O)[C@H](CC(=O)O)NC(=O)[C@H](CCC(N)=O)NC(=O)[C@H](Cc2cn(C)c3ccccc23)NC1=O [Compound 57] (Ac-EGSAFCI[Trp(1-Me)]QDWGEHRCTE-NH2; disulfide 6-16) | − (“−” denotes lack of solubility at the given condition, as UV absorbance at 340 nm exceeds 0.1 AU and/or it is visibly turbid or contains particles) | − (“−” denotes lack of solubility at the given condition, as UV absorbance at 340 nm exceeds 0.1 AU and/or it is visibly turbid or contains particles) | + (“+” denotes solubility at the given condition, as determined by UV absorbance being less than 0.1 AU at 340 nm and the sample being clear when manually inspected) | + (“+” denotes solubility at the given condition, as determined by UV absorbance being less than 0.1 AU at 340 nm and the sample being clear when manually inspected) | + (“+” denotes solubility at the given condition, as determined by UV absorbance being less than 0.1 AU at 340 nm and the sample being clear when manually inspected) | < 100 |
